From patent US20180147153A1, “PROCESS FOR MAKING A COATED DOSAGE FORM” (Johnson & Johnson Consumer Inc., priority 2016, published 2018)

Key:
Type in all cases: physicochemical
[1] = Dielectric properties (e′, e″, loss tangent, Q value) by Slotted Line Method
Excerpt: The property of permittivity is the measure of the resistance to forming an electric field. For purposes of comparing materials in air, it is often convenient to describe the permittivity of material in air where the permittivity is more specifically called “relative permittivity” or €r. This is a complex number represented by the following equation: […]
where e′ (the real portion of the complex number) is the dielectric constant (energy storage) and e″ (the imaginary portion of the complex number) is the dielectric loss or dissipation factor (energy dissipated as heat). The ratio of dielectric loss (e″) over the dielectric constant (e′) is called the loss tangent (tan δ) or power factor.
For purposes of this invention, the Q value is calculated for the frequency that the material is to be processed (e.g., 27 MHz). The Q value is affected by physical and chemical properties such as density (porosity/particle size), moisture (conductivity), temperature, and molecular polarizability. The measurements obtained by this method can eliminate the need to measure and evaluate these properties independently.
This process is referred to as the “Slotted Line Method.” Unless otherwise stated, the Slotted line method was used for the calculation of e′, e″, and Q value herein with the frequency range set to 26-28 MHz (31 points resolution) and values of e′ and e″ were recorded from the 27 MHz data point.

Water activity = details: Table 1b
[2] = Loss on drying (moisture); details: Table 1b
Procedure: In one embodiment, the lossy coated particle contains water. In this embodiment, the lossy coated particle comprises at least 0.1 percent, by weight, water, such as at least 0.3 percent, by weight, water, such as at least 0.5 percent, by weight, water when measured using loss on drying at 105° C. until the weight of the lossy coated particles has stabilized. In one embodiment, the lossy coated particle retains water when measured by loss on drying prior to sintering, such as moisture content of at least 0.1 percent by weight, such as from about 0.1 to about 3 percent, such as from about 0.5 to about 2 percent, by weight.

[3] = Table 1b, surface stabilizing agents, 27 MHz

| e′ [1, 3] | e″ [1, 3] | Water Activity (Water activity) | Loss on Drying @ 105° C. [2] | e′ ([1]; Table 1a, dielectric constant, 27 MHz data point, Slotted Line Method) | e″ ([1]; Table 1a, dielectric loss, 27 MHz data point, Slotted Line Method) | Loss Tangent ([1]; Table 1a, e″/e′, 27 MHz) | Compound |
| --- | --- | --- | --- | --- | --- | --- | --- |
| 1.751 | 0.010 | 0.453 | 0.035 | – | – | – | OC[C@@H](O)[C@H](O)[C@@H](O)CO [Xylitol (Xylitab ® 100), Xylitol] |
| 1.5185 | 0.0007 | 0.1935 | 0.137 | – | – | – | OC[C@H]1O[C@H](O[C@H]2O[C@H](CO)[C@@H](O)[C@H](O)[C@H]2O)[C@H](O)[C@@H](O)[C@@H]1O [Trehalose] |
| – | – | – | – | 1.6214 | 0.0035 | 0.0022 | OC[C@@H](O)[C@@H](O[C@H]1O[C@H](CO)[C@@H](O)[C@H](O)[C@H]1O)[C@H](O)[C@@H](O)CO [Maltitol (SweetPearl DC300), Maltitol] |
